Test results from patent publication US6677298B2, “Regulators of PPARδ (β) and their use in the treatment of obesity and insulin resistance” (Bristol-Myers Squibb Company, priority 2000, dated 2004).
Entries after “also recorded” stand apart in the source; their conditions may differ.

What was measured:
PPARδ(β) LBD = molecular target: T1, PPARδ(β) LBD (Homo sapiens, UniProt Q03181); test: In vitro PPARδ(β) LBD ligand binding assay (SPA, 3H-labeled ligand displacement); conditions: 50 nM 3H-labeled ligand, His-tagged LBD bacterial lysate, SPA beads, 1 hour room temperature; read-out: IC50, half maximal inhibition/displacement of 3H labeled PPARδ(β) ligand binding to PPARδ(β) LBD
T1 construct: His-tagged PPARδ(β) LBD (amino acid 139-441, Schmidt et al); made in house; host or cells: E. coli (crude lysate supernatant used)
T1 sequence (Q03181 139-441): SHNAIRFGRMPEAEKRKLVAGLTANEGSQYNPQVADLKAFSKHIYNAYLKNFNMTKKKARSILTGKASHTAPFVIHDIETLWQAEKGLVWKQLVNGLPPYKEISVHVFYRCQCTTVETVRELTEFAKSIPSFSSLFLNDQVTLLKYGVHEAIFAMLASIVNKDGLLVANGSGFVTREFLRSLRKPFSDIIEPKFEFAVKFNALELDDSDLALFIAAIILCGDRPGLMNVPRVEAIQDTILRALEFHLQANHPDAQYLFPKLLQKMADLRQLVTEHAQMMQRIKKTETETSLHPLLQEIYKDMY
Description: FIG. 3: Illustrates results from a PPARδ(β) ligand binding assay.
This invention also provides methods for screening and identification of compounds that bind to and/or regulate PPARδ(β). The PPARδ(β) ligand binding domain (LBD) from a mammalian species including human and/or a non-mammalian species such as frog (Xenopus), is used for screening for compounds that bind to the LBD (Schmidt et al, Mol. Endocrinology, 6:1634-1641, 1992; Evans et al., Sequence XR-4 in U.S. Pat. No. 5,571,696, 1996; Berger et al. J. Biol. Chem., 274:6718-6725, 1999). […]
A single E.coli colony containing His-tagged PPARδ(β) LBD (amino acid 139-441, Schmidt et al., Mol. Endocrinology, 6:1634-1641, 1992) expressing plasmid DNA is mixed with 3 ml Luria broth (LB) supplemented with 100 μg/ml antibiotic ampicilin and grown at 37° C. […] The plates are then read on Packard top-count beta-scintillation counter (1 minute/well). […] In this binding assay any test compound may replace L-165041 and the binding affinity for PPARδ(β) is easily determined.

Gal4/PPARδ(β) = molecular target: T2, Gal4/PPARδ(β) (Homo sapiens, UniProt Q03181); test: Cell based transactivation assay, δ agonist mode (Gal4 RE driven SEAP reporter in CHO cells); conditions: CHO cells stably transfected with Gal4/PPARδ(β); 3.16-31600 nM; FIG. 4
T2 construct: human PPARδ(β) LBD (amino acid 139-441); {Schmidt et al; expressed in transfected cells; host or cells: CHO cells, stably transfected
T2 sequence (P04386 1-144 partner limits assumed, one chain of several): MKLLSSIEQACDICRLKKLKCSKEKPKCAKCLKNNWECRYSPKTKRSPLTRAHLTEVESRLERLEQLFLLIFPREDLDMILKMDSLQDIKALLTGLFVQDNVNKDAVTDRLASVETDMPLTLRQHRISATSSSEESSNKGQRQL

CCCc1c(OCCCOc2ccc(OCC(=O)O)cc2)ccc(C(C)=O)c1O [Compound L-165041]
IC50 (PPARδ(β) LBD): 52 nM | Induction of SEAP reporter gene activity (Gal4/PPARδ(β)): dose dependent activation of reporter gene SEAP function; also recorded: dose dependently induced reporter gene activity
